From patent US20210009627A1, “CYCLIC DINUCLEOTIDE COMPOUNDS CONTAINING 2-AZA-HYPOXANTHINE OR 6H-PYTAZOLO[1,5-D][1,2,4]TRIZAIN-7-ONE AS STRING AGONISTS” (BOEHRINGER INGELHEIM INTERNATIONAL GMBH, priority 2018, published 2021)
Where a name gives a salt, the structure may show the parent alone.

Legend:
hSTING HAQ = target: T1, hSTING HAQ (Homo sapiens, UniProt Q86WV6, G230A/H232R/R293Q/R71H); test: THP1-Blue ISG hSTING KO reporter cells expressing hSTING HAQ variant; format: cell-based; details: HAQ variant cell line
T1 construct: expressed in transfected cells; host or cells: THP1-Blue ISG hSTING KO clone, retroviral MSCV-ires-GFP-Blasti
Text: (§1) Several single nucleotide polymorphisms have been identified in the human STING gene that may affect the response to cyclic dinucleotides. To determine the activity of compounds of the invention, THP1-Blue ISG reporter cell lines expressing the different human STING variants have been generated. To do so, the endogenous human STING was first deleted using the CRISPR/CAS9 system: THP1-Blue ISG cells were electroporated with ALL-IN-ONE CRISPR plasmids targeting the STING gene (purchased from Sigma encoding the gRNA and GFP as a reporter gene for successful transduction). GFP positive cells then were sorted 24 h post transfection and expanded. Cells were then dispersed in semisolid methocel medium to allow single cell clone isolations. Clones were then screened for cGAMP responsiveness using the Quanti-blue reporter assay. Non-responsive clones were subsequently analysed for STING loss by western blotting and sequencing of the STING locus.
(§2) For the overexpression of the human STING variants, a confirmed THP1-Blue ISG hSTING KO clone was transduced with individual retroviral plasmids (MSCV-ires-GFP-Blasti) encoding the allelic variants of hSTING (WT, HAQ, R232H, AQ and R293Q), respectively. Transduced cells were sorted for different levels of GFP fluorescence and STING allele expression was analysed by western blot.

hSTING WT = target: T2, hSTING WT (Homo sapiens, UniProt Q86WV6, H232R); test: THP1-Blue ISG hSTING KO reporter cells expressing hSTING WT variant; format: cell-based; details: WT variant cell line
T2 construct: expressed in transfected cells; host or cells: THP1-Blue ISG hSTING KO clone, retroviral MSCV-ires-GFP-Blasti
Text: as §1, §2

hSTING R293Q = target: T3, hSTING R293Q (Homo sapiens, UniProt Q86WV6, H232R/R293Q); test: THP1-Blue ISG hSTING KO reporter cells expressing hSTING R293Q variant; format: cell-based; details: R293Q variant cell line
T3 construct: expressed in transfected cells; host or cells: THP1-Blue ISG hSTING KO clone, retroviral MSCV-ires-GFP-Blasti
Text: as §1, §2

hSTING AQ = target: T4, hSTING AQ (Homo sapiens, UniProt Q86WV6, G230A/H232R/R293Q); test: THP1-Blue ISG hSTING KO reporter cells expressing hSTING AQ variant; format: cell-based; details: AQ variant cell line
T4 construct: expressed in transfected cells; host or cells: THP1-Blue ISG hSTING KO clone, retroviral MSCV-ires-GFP-Blasti
Text: as §1, §2

hSTING R232H = target: T5, hSTING R232H (Homo sapiens, UniProt Q86WV6); test: THP1-Blue ISG hSTING KO reporter cells expressing hSTING R232H variant; format: cell-based; details: R232H variant cell line
T5 construct: expressed in transfected cells; host or cells: THP1-Blue ISG hSTING KO clone, retroviral MSCV-ires-GFP-Blasti
Text: as §1, §2

[1] = target: T6, human STING protein in THP1-Blue ISG cells (Homo sapiens, UniProt Q86WV6, G230A/H232R/R293Q/R71H); test: In vitro cytokine induction, THP1-Blue ISG reporter cell assay (IRF-inducible SEAP); format: cell-based; details: 24 hours incubation, SEAP OD at 620 nm
T6 construct: host or cells: THP1-Blue ISG cells
Text: In Vitro Cytokine Induction
Activation of the STING protein expressed in THP1 cells results in an increase of interferon production. By the stable integration of an interferon regulatory factor (IRF)-inducible SEAP (secreted embryonic alkaline phosphatase) reporter construct the functional interferon signaling pathway can be monitored. Using Invivogen's QUANTI-Blue™ colorimetric enzyme assay and a suitable optical density (OD) reader the activity of SEAP can be detected and quantified. This technique could be used to characterize pharmacological modification of the STING protein. Measurements of SEAP activity were performed in THP1-Blue™ ISG cells stably expressing the human STING protein and the IRF-inducible SEAP reporter construct. Cells were cultivated for expansion in RPMI1640 medium with 10% fetal calf serum, 50 μg/ml Penicillin-Streptomycin, 100 μg/ml Zeocin, and 100 μg/ml Normocin in a 37°, 95% humidity and 5% CO2 incubator. Assay-ready cells were stored as frozen stocks.
In preparation for the assay, the cells were thawed in Zeocin-/Normocin-free medium and were distributed into the assay plates with a density of 15000 cells/15 μL per well. […]
At the day of the assay, 75 μl per well of Quanti-Blue reagent was added to all wells of the plate and the plate was incubated another 30 minutes at 37° C. The OD at 620 nm was measured on the EnVision reader (PerkinElmer). […]

[2] = target: Human STING (hSTING, residues 155-341, wild-type sequence) (Homo sapiens, UniProt Q86WV6, H232R); test: hSTING binding by differential scanning fluorimetry (DSF); details: 100 μM test compound, 3 μM target protein, thermal shift, at least two measurements averaged; read-out: hSTING Tm shift
Description: 3) 2 μl of this protein-dye-mixture (25× SYPRO Orange and 15 μM Protein) was added to 8 μl compound solution. Final volume was 10 μL. 4) Certain well positions were used as negative control. 5) The plates were prepared for duplicate measurement and centrifuged for 2 min at 1000 g. 6) In the measurement, 160 cycles of 0.5° C. were used (temperature ramp 15 s/cycle, 15° C. to 95° C.). Data analysis: The dissociation curves were processed in Bio-Rad CFX Manager. Peak type was set to “negative”. At least two measurements were averaged.

T6 sequence (Q86WV6 whole entry R71H/G230A/H232R/R293Q): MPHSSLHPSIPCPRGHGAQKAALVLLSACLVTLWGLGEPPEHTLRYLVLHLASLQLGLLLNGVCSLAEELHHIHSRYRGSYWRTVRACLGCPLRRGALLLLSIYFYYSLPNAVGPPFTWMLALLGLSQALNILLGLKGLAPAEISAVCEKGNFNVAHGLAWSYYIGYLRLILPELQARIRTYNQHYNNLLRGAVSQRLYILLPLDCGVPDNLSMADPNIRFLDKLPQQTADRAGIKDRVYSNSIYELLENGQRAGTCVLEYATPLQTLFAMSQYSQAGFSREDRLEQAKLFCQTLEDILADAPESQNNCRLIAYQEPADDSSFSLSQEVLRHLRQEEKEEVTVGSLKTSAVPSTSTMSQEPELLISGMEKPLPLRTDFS
Chain of Human STING (hSTING, residues 155-341, wild-type sequence) (Q86WV6 155-341 H232R): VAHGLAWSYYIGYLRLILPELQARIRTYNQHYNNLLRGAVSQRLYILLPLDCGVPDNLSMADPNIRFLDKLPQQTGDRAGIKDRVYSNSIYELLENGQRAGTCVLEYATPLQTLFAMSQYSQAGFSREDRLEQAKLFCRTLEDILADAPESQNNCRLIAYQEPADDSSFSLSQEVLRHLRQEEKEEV
T3 sequence (Q86WV6 whole entry H232R/R293Q): as the sequence (Q86WV6 whole entry R71H/G230A/H232R/R293Q) above, with H71R, A230G counted along it
T5 sequence (Q86WV6 whole entry, stated change not applied): as the sequence (Q86WV6 whole entry R71H/G230A/H232R/R293Q) above, with H71R, A230G, R232H, Q293R counted along it
T1 sequence (Q86WV6 whole entry R71H/G230A/H232R/R293Q): as the sequence (Q86WV6 whole entry R71H/G230A/H232R/R293Q) above
T2 sequence (Q86WV6 whole entry H232R): as the sequence (Q86WV6 whole entry R71H/G230A/H232R/R293Q) above, with H71R, A230G, Q293R counted along it
T4 sequence (Q86WV6 whole entry G230A/H232R/R293Q): as the sequence (Q86WV6 whole entry R71H/G230A/H232R/R293Q) above, with H71R counted along it

Row | EC50 (hSTING HAQ) | EC50 (hSTING WT) | EC50 (hSTING R293Q) | EC50 (hSTING AQ) | EC50 (hSTING R232H) | EC50 [1] | ΔTm at 100 µM [2] | Structure (SMILES)
1 | 510 µM | 510 µM | 510 µM | 510 µM | 510 µM | 0.16 µM | 23.9 °C | Nc1ncnc2c1ncn2[C@@H]1O[C@@H]2COP(=O)(S)O[C@@H]3[C@H](O)[C@@H](COP(=O)(S)O[C@H]2[C@H]1F)O[C@H]3n1cnc2c(=O)[nH]nnc21 (single isomer, unassigned) [Example 1.1, Cyclic 2-azainosine-(2′→5′)-phosphorothioate-2′-F-2′-deoxyadenosine-(3′→5′)-phosphoro-thioate sodium salt]
2 | – | – | – | – | – | 0.14 µM | 17.9 °C | Nc1ncnc2c1ncn2[C@@H]1O[C@@H]2COP(=O)(S)O[C@@H]3[C@H](O)[C@@H](COP(=O)(S)O[C@H]2[C@H]1F)O[C@H]3c1cnn2c(=O)[nH]ncc12 (single isomer, unassigned) [Example 2.1, Cyclic 8-δ-D-ribofuranosyl-pyrazolo[1,5-d]-1,2,4-triazin-4(3H)-one-(2′→5′)-phosphorothioate-2′-F-2′-deoxyadenosine-(3′→5′)-phosphorothioate sodium salt]
